Reference: PMC9945408 (Food Chemistry: X, 2023)

Legend:
[1] = target: T1, indoleamine 2,3-dioxygenase 1 (IDO1) (Homo sapiens, UniProt P14902); experiment: % inhibition at […], capillary electrophoresis enzyme assay; assay type: biochemical
[2] = target: T1, indoleamine 2,3-dioxygenase 1 (IDO1); experiment: capillary electrophoresis enzyme assay; assay type: biochemical

T1 sequence (P14902 whole entry): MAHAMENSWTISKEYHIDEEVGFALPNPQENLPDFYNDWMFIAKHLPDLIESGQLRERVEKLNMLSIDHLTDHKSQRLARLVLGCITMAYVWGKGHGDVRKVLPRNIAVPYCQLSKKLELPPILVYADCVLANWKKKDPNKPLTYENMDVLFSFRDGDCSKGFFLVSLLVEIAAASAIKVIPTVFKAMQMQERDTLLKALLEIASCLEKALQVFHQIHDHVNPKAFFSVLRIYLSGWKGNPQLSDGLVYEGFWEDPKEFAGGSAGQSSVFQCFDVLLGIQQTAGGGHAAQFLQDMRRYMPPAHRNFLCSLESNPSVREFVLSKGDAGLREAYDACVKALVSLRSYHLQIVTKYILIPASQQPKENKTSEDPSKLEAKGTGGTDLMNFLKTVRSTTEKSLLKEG

Row | SMILES | inhibition at 100 µM [1] [%] | IC50 [2] [µM]
1 | O=C(/C=C/c1ccc(O)c(O)c1)O[C@@H]1C[C@@](O)(C(=O)O)C[C@@H](O)[C@@H]1O [compound 1, Neochlorogenic acid] | 10.9 | 
2 | O=C(/C=C/c1ccc(O)c(O)c1)O[C@@H]1C[C@](O)(C(=O)O)C[C@@H](O)[C@H]1O [compound 2, Chlorogenic acid] |  | 308
3 | O=C(/C=C/c1ccc(O)c(O)c1)O[C@H]1[C@H](O)C[C@](O)(C(=O)O)C[C@H]1O [compound 3, Cryptochlorogenic acid] | 11.8 | 
4 | COc1cc(/C=C/C(=O)O[C@@H]2C[C@@](O)(C(=O)O)C[C@@H](O)[C@@H]2O)ccc1O [compound 4, 3-O-Feruloylquinic acid] | 16.4 | 

The next lines start with the values.

Row | inhibition at 100 µM [1] [%] | IC50 [2] [µM] | SMILES
5 | 12.7 |  | COc1cc(/C=C/C(=O)O[C@@H]2C[C@](O)(C(=O)O)C[C@@H](O)[C@H]2O)ccc1O [compound 6, 5-O-Feruloylquinic acid]
6 |  | 114 | COc1cc(/C=C/C(=O)O)ccc1O [compound 7, Ferulic acid]
7 | 19.1 |  | O=C(/C=C/c1ccc(O)c(O)c1)O[C@H]1[C@H](O)C[C@](O)(C(=O)O)C[C@H]1OC(=O)/C=C/c1ccc(O)c(O)c1 [compound 8, Isochlorogenic acid B]
8 | 10.9 |  | O=C(/C=C/c1ccc(O)c(O)c1)O[C@@H]1[C@H](O)C[C@@](O)(C(=O)O)C[C@H]1OC(=O)/C=C/c1ccc(O)c(O)c1 [compound 10, Isochlorogenic acid C]
